Measured values taken from article PMC11522050, “Cloning, expression and characterisation of a novel mollusc α-1,2-Fucosyltransferase from Crassostrea gigas (CgFUT2)” (Glycoconjugate Journal, 2024).

How the values were obtained:
CgFUT2 [1] = molecular target: T1, CgFUT2 (Magallana gigas, UniProt A0AA95ZAK5); test: fucosyl transfer to pNP-lactose, HPLC with UV detection; format: biochemical; settings: 0.25 mM GDP; 3 mM GDP-Fuc, 0.5 mM pNP-β-lactose, 20 mM MnCl2, 2 mM ATP, MES pH 7.0, 37 °C; Sf9 lysate
T1 construct: crude cell lysate used (purification failed)
T1 sequence (A0AA95ZAK5 1-350): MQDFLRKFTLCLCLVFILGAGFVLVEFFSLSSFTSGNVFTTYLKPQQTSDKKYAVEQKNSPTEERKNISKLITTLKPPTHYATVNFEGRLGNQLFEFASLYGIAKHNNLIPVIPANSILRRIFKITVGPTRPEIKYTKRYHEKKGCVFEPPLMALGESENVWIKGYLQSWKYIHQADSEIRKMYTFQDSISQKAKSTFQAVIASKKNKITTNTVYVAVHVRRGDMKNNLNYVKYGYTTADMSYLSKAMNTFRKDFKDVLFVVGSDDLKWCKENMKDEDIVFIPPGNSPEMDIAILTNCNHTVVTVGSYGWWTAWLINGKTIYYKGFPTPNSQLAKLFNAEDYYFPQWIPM

CgFUT2 [2] = molecular target: T1, CgFUT2; test: fucosyl transfer, HPLC with UV detection; product by NMR; format: biochemical; settings: acceptor; 3 mM GDP-Fuc, 20 mM MnCl2, MES pH 7.0, 37 °C; control Sf9 lysate without enzyme as blank

% decrease of activity at 0.25 mM (CgFUT2 [1]) | SMILES | fucosyl transfer, HPLC with UV detection; product by NMR (CgFUT2 [2])
30% | Nc1nc2c(ncn2[C@@H]2O[C@H](COP(=O)(O)OP(=O)(O)O)[C@@H](O)[C@H]2O)c(=O)[nH]1 [GDP] | 
 | O=[N+]([O-])c1ccc(O[C@@H]2O[C@H](CO)[C@@H](O[C@@H]3O[C@H](CO)[C@H](O)[C@H](O)[C@H]3O)[C@H](O)[C@H]2O)cc1 [pNP-β-lactose] | Sf9 cell lysate expressing CgFUT2 and a control Sf9 cell lysate was assessed using pNP-β-lactose
